# Test results from patent publication EP1764363A2, “Substituted acetophenonederivatives” (Riemser Arzneimittel AG, priority 2005, dated 2007).
# “And” between values parts separate entries of the source, which are not always exact repeats. Identical values can stand only once. Marks after values point to notes of the source that are not given here.
# How the values were obtained:
# [1] = Radical scavenger screening with DPPH radicals (DPPH test); details: Konzentrationen 500 und 1000µg/ml
# Source text: […] die 6 Verbindungen HMF2, HMF-3, CH-1, L5, Q20 und […]. Die […] durch den DPPH-Test ermittelt, wobei sich die UV/VIS-Absorption des freien stabilen […] (Diphenyl-β-picrylhydrazin) in Abhängigkeit vom Zustand von […]. Die Auswertung erfolgt qualitativ (dünnschichtchromatographisch) und quantitativ (photometrisch) mit Ascorbinsäure […] Molyneux P. (2004) The use of the stabel free radical diphenylpicrylhydrazyl (DPPH) for estimating antioxidant activity. Songklanakarin J Sci Technol. 26(2): 211-219).
# [2] = tested on: Staphylococcus aureus (Stamm ATCC 6538); test: Mouse ear test (in vivo), antiseptic effect; set-up: key to Keimwachstum (grade): +++: totale Verhinderung des Keimwachstums; ++: Keimwachstum deutlich reduziert aber nicht völlig unterdrückt; details: mouse ears infected with S. aureus ATCC 6538; germ count vs infected untreated animal after 18 and 24 h
# [3] = tested on: Rhodococcus equi; test: Minimal inhibitory concentration (MHK), microtitre plate, TTC staining; type: cell-based; details: 48h, 36°C
# [4] = tested on: Salmonella sp; test: as above; type: cell-based; details: 48h, 36°C
# Source text: Das Inokulum für die Tests wurde durch Verdünnung der Mikroorganismen in wässriger 0,85% NaCI-Lösung hergestellt, die Verdünnung auf die Stufe 0,5 nach McFarland eingestellt und die Konzentration spektrometrisch bei einer Wellenlänge von 580nm überprüft. Die Zellsuspensionen wurden zur Verwendung in den Tests auf 10^4 UFC/ml verdünnt. Die MHK-Tests erfolgten (Vorschrift nach J. N. P. Eloff, Planta Medica, Vol. 64, 1998, p 711-713) in Mikrotiterplatten mit 96 Vertiefungen. Serienverdünnungen der Konzentrationen lagen im Bereich 1,00 - 0,0015 mg/mL. Als Kontrollsubstanzen dienten Chloramphenicol bzw. Nistatin (Merck) in einer Konzentration von 0,062 - 0,005 mg/ml bzw. 0,0125 - 0,001 mg/ml. Das Inokulum (100 µl) wurde in alle Vertiefungen gegeben und die Platten für 48h bei 36°C inkubiert. Die antimikrobielle Aktivität wurde durch Zugabe von 20 µl einer 0,5% igen wässrigen Lösung von TTC (Tetrazoliumchlorid, Merck) pro Vertiefung detektiert. Die minimale Hemmkonzentration (MHK) wird als die niedrigste Konzentration der Verbindung definiert die das sichtbare Wachstum hemmt (durch TTC-Färbung indiziert).
# [5] = tested on: Candida albicans; test: as above; type: cell-based; details: 48h, 36°C
# [6] = tested on: Escherichia coli; test: as above; type: cell-based; details: 48h, 36°C
# [7] = tested on: E. faecium; test: as above; type: cell-based; details: 48h, 36°C
# [8] = tested on: S. falcium; test: as above; type: cell-based; details: 48h, 36°C
# [9] = tested on: Micrococcus luteus; test: as above; type: cell-based; details: 48h, 36°C
# [10] = tested on: S. aureus; test: as above; type: cell-based; details: 48h, 36°C
# [11] = tested on: Bacillus subitilis; test: as above; type: cell-based; details: 48h, 36°C
# [12] = tested on: S. epidermides; test: as above; type: cell-based; details: 48h, 36°C
# [13] = tested on: MDA-MB435; test: Chemosensitivity test (modified MTT test EZ4U); details: Homo sapiens, MDA-MB-435, 96 h, read-out: IC50-Werte
# Source text: (§1) Die Verbindungen wurden in Dimethylsulfoxid (DMSO) als konzentrierte Stammlösungen (100-400fach) gelöst und für Proliferationstests in Zellkulturmedium verdünnt.
# (§2) Mit Ausnahme von SIM, KAL Ewingsarkom (in Wien etabliert) und LAN Neuroblastom (University of Los Angeles) wurden die Zell-Linien von der American Type Culture Collection (ATCC, Rockville, MD) bezogen und zum Erhalt von konfluenten Monolayerkulturen in RPMI-1640 Bikarbonatmedium (Seromed, Berlin, Deutschland) in einem Zellkulturschrank (5% CO2, 37°C) kultiviert. Mit der Ausnahme der murinen NlH3T3 Fibroblasten sind alle verwendeten Zell-Linien humanen Ursprungs. Die Zellen wurden auf Verunreinigung durch Mycoplasmen untersucht. Das Medium wurde mit 10% hitzeinaktiviertem foetalem Kälberserum (Seromed) and 4 mM Glutamin ergänzt. Die Zellen wurden durch Trypsinierung subkultiviert (0.03% Trypsin enthaltend 0.02% EDTA, dreimal pro Woche). Die Trypsinierung wurde durch Verwendung vom komplettem Zellkulturmedium gestoppt. Die Zellzahl wurde unter Verwendung eines TOA Sysmex Microzellzählers (TOA, Tokyo, Japan) bestimmt.
# (§3) 10^4 Zellen/well wurden in Mikrotiterplatten mit 96 Vertiefungen (100 µl Medium) verteilt und die zu testenden Verbindungen wurden in einem weiteren Volumen von 100 µl hinzugegeben. […]
# [14] = tested on: WI38; test: Chemosensitivity test (modified MTT test EZ4U); details: Homo sapiens, WI-38, 96 h, read-out: IC50-Werte
# Experimental: as §1
# (§4) Die Zellen wurden auf Verunreinigung durch Mycoplasmen untersucht. Das Medium wurde mit 10% hitzeinaktiviertem foetalem Kälberserum (Seromed) and 4 mM Glutamin ergänzt. Die Zellen wurden durch Trypsinierung subkultiviert (0.03% Trypsin enthaltend 0.02% EDTA, dreimal pro Woche). Die Trypsinierung wurde durch Verwendung vom komplettem Zellkulturmedium gestoppt. Die Zellzahl wurde unter Verwendung eines TOA Sysmex Microzellzählers (TOA, Tokyo, Japan) bestimmt.
# (§5) 10^4 Zellen/well wurden in Mikrotiterplatten mit 96 Vertiefungen (100 µl Medium) verteilt und die zu testenden Verbindungen wurden in einem weiteren Volumen von 100 µl hinzugegeben. Alle Verbindungen wurden entweder in 3 fixen Konzentrationen eingesetzt (für Tabellen 1-3) oder in 10 Stufen verdünnt unter Verwendung von Zweifachverdünnungsschritten zur Bestimmung der IC50-Werte (dreifache Ansätze, in den meisten Fällen vierfache Ansätze). Die Platten wurden, mit der Ausnahme der Tests zur Untersuchung des Zusammenhangs von Applikationsdauer und Zellreaktion, 4 Tage lang unter Zellkulturbedingungen inkubiert und die Zellviabilität wurde unter Verwendung eines modifizierten MTT Tests bestimmt (Formazan-Farbstoffbildung aus Tetrazoliumsalzen wie MTT, XTT, WST-1 und anderen durch das mitochondriale Reduktionsystem Succinattetrazolium Reductase EC 1.3.99.1.; EZ4U nichtradioaktiver Zellproliferations- und Cytotoxizitätstest, Biomedica, Wien, Österreich; Testmanual unter: www.bmgrp.com). Hierbei wurde die mitochondriale Aktivität und dadurch die Zellviabilität/Zellzahl bestimmt. Kurz gesagt wurde das gelieferte Substrat in einer Aktivatorlösung gelöst und 20 µl der Mischung wurden für 2 Stunden pro Vertiefung hinzugegeben (Gesamtvolumen 200 µl). Die optische Dichte wurde bei 450 nm unter Verwendung einer leeren Vertiefung als Referenz in einem Mikroplattenlesegerät (Eurogenetics, Brüssel, Belgien) bestimmt. Für jede Zell-Line wurden Vertiefungen verwendet um das MTT-Signal der Mediumkontrollen ohne Testsubstanzen zu bestimmen. Die Proliferation in den Test-Vertiefungen wurde in Bezug auf diese Kontrollwerte (100%) errechnet. Die Testergebnisse wurden zwischen 0,3 und 1,5 optischer Dichte für langsam bzw. schnellproliferierende Zellen erfasst. Diese Dosis-Wirkungs-Beziehungen wurden verwendet um die IC50 (Konzentration bei der das Wachstum um 50% gehemmt wird) unter Verwendung von PRISM Scientific Software (GraphPad Inc., San Diego, CA) zu berechnen.
# [15] = tested on: CRO2B; test: Chemosensitivity test (modified MTT test EZ4U); details: Homo sapiens, 96 h, read-out: IC50-Werte
# Experimental: as §1, §4, §5
# [16] = tested on: T47D; test: Chemosensitivity test (modified MTT test EZ4U); details: Homo sapiens, T47D, 96 h, read-out: IC50-Werte
# Experimental: as §1, §4, §5
# [17] = tested on: BT20; test: Chemosensitivity test (modified MTT test EZ4U); details: Homo sapiens, BT-20, 96 h, read-out: IC50-Werte
# Source text: as §1, §2, §3
# [18] = tested on: HT29; test: Chemosensitivity test (modified MTT test EZ4U); details: Homo sapiens, HT-29, 96 h, read-out: IC50-Werte
# Source text: as §1, §2, §3
# [19] = tested on: SW620; test: Chemosensitivity test (modified MTT test EZ4U); details: Homo sapiens, SW-620, 96 h, read-out: IC50-Werte
# Experimental: as §1, §4, §5
# [20] = tested on: CaCo-2; test: Chemosensitivity test (modified MTT test EZ4U); details: Homo sapiens, Caco-2, 96 h, read-out: IC50-Werte
# Experimental: as §1, §4, §5
# [21] = tested on: BxPC3; test: Chemosensitivity test (modified MTT test EZ4U); details: Homo sapiens, BXPC-3, 96 h, read-out: IC50-Werte
# Source text: as §1, §2, §3
# [22] = tested on: DU 145; test: Chemosensitivity test (modified MTT test EZ4U); details: Homo sapiens, DU-145, 96 h, read-out: IC50-Werte
# Source text: as §1, §2, §3
# [23] = tested on: Colo205; test: Chemosensitivity test (modified MTT test EZ4U); details: Homo sapiens, COLO 205, 96 h, read-out: IC50-Werte
# Experimental: as §1, §4, §5
# [24] = tested on: MIAPaCa2; test: Chemosensitivity test (modified MTT test EZ4U); details: Homo sapiens, MIA PaCa-2, 96 h, read-out: IC50-Werte
# Experimental: as §1, §4, §5
Compound,Keimwachstum (grade) [2],MHK-Werte [3],MHK-Werte [5],MHK-Werte [6],MHK-Werte [7],MHK-Werte [8],MHK-Werte [9],MHK-Werte [10],MHK-Werte [11],MHK-Werte [12],also measured
"CC(C)=CCOc1ccccc1C(C)=C(C#N)C#N [L5, 2-{1-[2-(3-Methylbut-2-enyloxy}phenyl]ethyliden}-malononitril]",+++,,,,,,,,,,Radikalfänger-Effekt [1]: 60%
"CC(C)=CCOc1ccc(C(C)=C(C#N)C#N)cc1 [LPK1, 2-{1-[4-(3-Methylbut-2-enyloxy)phenyl]ethyiliden}-malononitril]",,"> 1,5 mg/ml","> 1,5 mg/ml","> 1,5 mg/ml","> 1,5 mg/ml","> 1,5 mg/ml","> 1,5 mg/ml","> 1,5 mg/ml","> 1,5 mg/ml","0,5-1,0 mg/ml","MHK-Werte [4]: > 1,5 mg/ml"
"C[C@@H]1[C@H](O)[C@@H](C)/C=C/C=C/CC/C=C/C=C/C=C/C=C/C(O[C@H]2O[C@H](C)[C@@H](O)[C@H](N)[C@@H]2O)CC2O[C@](O)(CC(O)C(O)CCC(O)CC(O)CC(O)CC(=O)O[C@H]1C)CC(O)C2C(=O)O (stereo partly drawn) [Nistatin, reference compound]",,,"0,05** mg/ml and 0,12** mg/ml",,,,,,,,
"CC(=C(C#N)C#N)c1ccc(O)cc1 [OK, 2-[1-(4-Hydroxyphenyl)ethyliden]malonitril]",,"0,5-1,0 mg/ml","0,5-1,0 mg/ml","0,5-1,0 mg/ml","0,12-0,25 mg/ml","0,5-1,0 mg/ml","0,12-0,25 mg/ml","0,25-0,5 mg/ml","0,12-0,25 mg/ml","0,03-0,06 mg/ml",
"COc1cc(C2CC(=O)c3ccccc3O2)ccc1OCC=C(C)C (stereo not drawn) [Q25, 2-[3-Methoxy-4-(3-methylbut-2-enyloxy)phenyl]chroman-4-on]",++,,,,,,,,,,IC50 [13]: 34 µg/mL; IC50 [14]: 8.2 µg/mL; IC50 [15]: 6 µg/mL; IC50 [16]: 10 µg/mL; IC50 [17]: 45 µg/mL; IC50 [18]: 18 µg/mL; IC50 [19]: 84 µg/mL; IC50 [20]: 18 µg/mL; IC50 [21]: 80 µg/mL; IC50 [22]: 15 µg/mL; IC50 [23]: 75 µg/mL; IC50 [24]: 57 µg/mL; Keimwachstum reduziert auf [2]: 30%
